# Data: patent US4011390A, “Semi-synthetic aminocyclitol aminoglycoside antibiotics and methods for the preparation thereof” (Schering-Plough Corporation, priority 1974, dated 1977)
# How the values were obtained:
# Format in all cases: cell-based
# Staphylococcus aureus = test: Disc test, Bauer-Kirby technique with 10 Mcg. discs
# Source text: (§1) Disc Test Results (Replicate Tests) With The Mutamicins, Sisomicin and
# (§2) Bauer-Kirby Technique^1 With 10 Mcg. Discs
# (§3) ^1 Bauer, Kirby, Sherris and Turck, American Journal of Clinical
# Klebsiella pneumoniae [1] = test: as above
# Source text: as §1, §2, §3
# Pseudomonas aeruginosa [2] = test: as above
# Source text: as §1, §2, §3
# Bacillus subtilis = test: as above; conditions: strain ATCC 6633
# Source text: as §1, §2, §3
# Escherichia coli = test: as above; conditions: 10 Mcg. discs
# Source text: as §1, §2, §3
# Streptococcus pyogenes = test: as above
# Source text: as §1, §2, §3
# Providence 164 = test: as above; conditions: strain 164
# Source text: as §1, §2, §3
# Klebsiella pneumoniae [3] = test: Activity against resistant strains; conditions: gentamicin, tobramycin and kanamycin resistant adenylylating strains
# Source text: (§4) In many instances, bacterial resistance is related to the organism's ability to inactivate the antibacterial agent via enzymatic (biochemical) means. Some species inactivate aminoglycosides antibiotics by acetylating the antibacterial agent, others by phosphorylation and still others by adenylylating. Some strains have several different inactivating capabilities. Further, the inactivation reactions occur at a specific site or sites on the antibacterial agent. We have shown by the compounds of this invention that alteration of sites on the antibiotic molecule not directly involved in inactivation processes can nevertheless frustrate these inactivation processes. […] The tables illustrate that the mutamicins include compounds which are active against strains having different mechanisms of inactivation of gentamicin, sisomicin, kanamycin, neomycin and torbramycin. For example, some mutamicins are effective against strains of E. coli which contain adenylylating R factors such as E. coli W677/R55 and LA290/R55. These E. coli strains are resistant to gentamicin, sisomicin and torbramycin. Some are also effective against gentamicin, tobramycin and kanamycin resistant adenylylating strains of Klebsiella pneumoniae and also kanamycin, neomycin phosphorylating strains of E. coli and Klebsiella pneumoniae. Further, some mutamicins are effective against gentamicin and sisomicin resistant strains of Pseudomonas aeruginosa and gentamicin, sisomicin, tobramycin resistant Providence which is sensitive to kanamycin. Thus, the mutamicins afford a means for combatting strains of bacteria which have already developed a variety of mechanisms for resisting the action of many of the antibiotics known in the art or currently in commercial use.
# Providence = test: Activity against resistant strains; conditions: gentamicin, sisomicin, tobramycin resistant Providence
# Source text: as §4
# Pseudomonas aeruginosa [4] = test: Activity against resistant strains; conditions: gentamicin and sisomicin resistant strains
# Source text: as §4
# E. coli = test: Activity against resistant strains; conditions: E. coli W677/R55 and LA290/R55
# Source text: as §4
substance,measurement,setting,value
gentamicin [reference compound],Zone Size,Staphylococcus aureus; strain 59N,28 mm
same,Zone Size,Staphylococcus aureus; strain ATCC 6538P,25 mm
same,Zone Size,Staphylococcus aureus; strain Wood,27 mm
same,Zone Size,Staphylococcus aureus; strain Ziegler,26 mm
same,Zone Size,Klebsiella pneumoniae [1]; strain Ad 17,22 mm
same,Zone Size,Klebsiella pneumoniae [1]; strain Ad 18,25 mm
same,Zone Size,Klebsiella pneumoniae [1]; strain Georgetown 3020,11 mm
same,Zone Size,Klebsiella pneumoniae [1]; strain Georgetown 3694,13 mm
same,Zone Size,Pseudomonas aeruginosa [2]; strain Capetown 18,12 mm
same,Zone Size,Pseudomonas aeruginosa [2]; strain D-2,23 mm
same,Zone Size,Pseudomonas aeruginosa [2]; strain St. Michael 413,26 mm
same,Zone Size,Pseudomonas aeruginosa [2]; strain St. Michael 762,24 mm
same,Zone Size,Pseudomonas aeruginosa [2]; strain St. Michael 1262,25 mm
same,Zone Size,Pseudomonas aeruginosa [2]; strain St. Michael 1395,26 mm
same,Zone Size,Pseudomonas aeruginosa [2]; strain Stone 20,27 mm
same,Zone Size,Pseudomonas aeruginosa [2]; strain Stone 39,25 mm
same,Zone Size,Pseudomonas aeruginosa [2]; strain Stone 130,12 mm
same,Zone Size,Pseudomonas aeruginosa [2]; strain Stone 138,10 mm
same,Zone Size,Bacillus subtilis,31 mm
same,Zone Size,Escherichia coli; strain 589,23 mm
same,Zone Size,Escherichia coli; strain ATCC 10536,28 mm
same,Zone Size,Escherichia coli; strain JR88,11 mm
same,Zone Size,Escherichia coli; strain JR90,0 mm
same,Zone Size,Escherichia coli; strain LA290/R55,12 mm
same,Zone Size,Escherichia coli; strain Swidinsky 4195,23 mm
same,Zone Size,Escherichia coli; strain W677/R55,13 mm
same,Zone Size,Streptococcus pyogenes; strain B-Cruz,16 mm
same,Zone Size,Streptococcus pyogenes; strain C,13 mm
same,Zone Size,Providence 164,11 mm
same,activity against resistant adenylylating strains,Klebsiella pneumoniae [3],resistant
same,activity against resistant Providence,Providence,resistant
same,activity against resistant strains,Pseudomonas aeruginosa [4],resistant
same,activity against strains containing adenylylating R factors,E. coli,resistant
